“And” between values parts separate entries of the source, which are not always exact repeats. Identical values can stand only once.
Columns and labels:
A549 [1] = assay: Antiproliferative activity against human A549 cells assessed as cell growth inhibition incubated for 72 hrs under normoxia condition by SRB assay; format: functional, cell-based; conditions: A549, 72 h
A549 [2] = assay: Antiproliferative activity against human A549 cells assessed as cell growth inhibition incubated for 72 hrs under hypoxia condition by SRB assay; format: functional, cell-based; conditions: A549, 72 h
HT-29 [3] = assay: Antiproliferative activity against human HT-29 cells assessed as cell growth inhibition incubated for 72 hrs under normoxia condition by SRB assay; format: functional, cell-based; conditions: HT-29, 72 h
HT-29 [4] = assay: Antiproliferative activity against human HT-29 cells assessed as cell growth inhibition incubated for 72 hrs under hypoxia condition by SRB assay; format: functional, cell-based; conditions: HT-29, 72 h
A549 [5] = assay: cells; conditions: Homo sapiens
Description: Antiproliferative activity against human A549 cells assessed as cell growth inhibition by MTT assay

[6] = target: T1, Epidermal growth factor receptor (Homo sapiens, UniProt P00533); assay: Inhibition of human EGFR incubated for 1 hrs in presence of ATP by ELISA assay
A549 [7] = assay: Anticancer activity against human A549 cells assessed as cell growth inhibition incubated for 24 hrs by MTT assay; format: functional, cell-based; conditions: A549, 24 h
[8] = target: T2, Receptor tyrosine-protein kinase erbB-2 (Homo sapiens, UniProt P04626)
MCF7 = assay: Antiproliferative activity against human MCF7 cells assessed as cell growth inhibition incubated for 72 hrs by MTT assay; format: functional, cell-based; conditions: MCF7, 72 h
HT-29 [9] = assay: Antiproliferative activity against human HT-29 cells assessed as cell growth inhibition incubated for 72 hrs by MTT assay; format: functional, cell-based
MRC5 = assay: Antiproliferative activity against human MRC5 cells assessed as cell growth inhibition incubated for 72 hrs by MTT assay; format: functional, cell-based; conditions: MRC5, 72 h
NCI-H460 = assay: Antiproliferative activity against human NCI-H460 cells assessed as cell growth inhibition incubated for 72 hrs by MTT assay; format: functional, cell-based; conditions: NCI-H460, 72 h
A549 [10] = assay: cells; format: functional, cell-based; conditions: Homo sapiens, A549, 72 h
Description: Antiproliferative activity against human A549 cells assessed as cell growth inhibition incubated for 72 hrs by MTT assay

MDA-MB-231 [11] = assay: cells; conditions: Homo sapiens, MDA-MB-231, 72 h
Description: Antiproliferative activity against human MDA-MB-231 cells assessed as cell growth inhibition incubated for 72 hrs by MTT assay

[12] = target: T1, Epidermal growth factor receptor; assay: Inhibition of EGFR (unknown origin) incubated for 10 mins in presence of ATP by mobility shift assay
[13] = target: T3, Epidermal growth factor receptor (Homo sapiens, UniProt P00533, T790M/L858R); assay: Inhibition of EGFR L858R/T790M mutant (unknown origin) incubated for 10 mins in presence of ATP by mobility shift assay
HepG2 [14] = assay: Antiproliferative activity against human HepG2 cells assessed as cell growth inhibition incubated for 72 hrs by MTT assay; format: functional, cell-based; conditions: HepG2, 72 h
PC-3 = assay: Antiproliferative activity against human PC-3 cells assessed as cell growth inhibition incubated for 72 hrs by MTT assay; format: functional, cell-based; conditions: PC-3, 72 h
[15] = target: T1, Epidermal growth factor receptor
[16] = target: T3, Epidermal growth factor receptor
[17] = target: Epidermal growth factor receptor (Homo sapiens, UniProt P00533, 746-750DEL)
PC-9 = assay: cells; format: functional, cell-based; conditions: Homo sapiens, PC-9, 72 h
Description: Antiproliferative activity against human PC-9 cells assessed as cell growth inhibition incubated for 72 hrs by SRB assay

A-431 = assay: Antiproliferative activity against human A-431 cells assessed as cell growth inhibition incubated for 72 hrs by SRB assay; format: functional, cell-based; conditions: A-431, 72 h
[18] = AUClast in Sprague-Dawley rat plasma at 10 mg/kg, iv by LC-MS/MS analysis; format: ADME, organism-based; design: dose 10 mg/kg, route iv
[19] = AUC (0 to infinity) in Sprague-Dawley rat plasma at 10 mg/kg, iv by LC-MS/MS analysis; format: ADME, organism-based; design: dose 10 mg/kg, route iv
[20] = MRT (0 to 24 hrs) in Sprague-Dawley rat plasma at 10 mg/kg, iv by LC-MS/MS analysis; format: ADME, organism-based
A549 [21] = assay: Induction of apoptosis in human A549 cells assessed as late apoptotic cells measured after 48 hrs by Annexin V-FITC/ Propidium iodide staining based flow cytometry relative to control; format: functional
[22] = target: T1, Epidermal growth factor receptor; remark: listed apart in the source
[23] = target: T2, Receptor tyrosine-protein kinase erbB-2; assay: Inhibition of human HER2
[24] = target: Vascular endothelial growth factor receptor 2 (Homo sapiens, UniProt P35968)
Description: Inhibition of VEGFR2 (unknown origin)

HL-60 = assay: Antiproliferative activity against human HL-60 cells assessed as cell growth inhibition incubated for 72 hrs by MTT assay; format: functional, cell-based
K562 = assay: Antiproliferative activity against human K562 cells assessed as cell growth inhibition incubated for 72 hrs by MTT assay; format: functional, cell-based; conditions: K562, 72 h
MDA-MB-231 [25] = assay: Antiproliferative activity against human MDA-MB-231 cells assessed as cell growth inhibition incubated for 48 hrs by MTT assay; format: functional, cell-based; conditions: MDA-MB-231, 48 h
A549 [26] = assay: cells; format: functional, cell-based; conditions: Homo sapiens, A549, 48 h
Description: Antiproliferative activity against human A549 cells assessed as cell growth inhibition incubated for 48 hrs by MTT assay

CNE = assay: cells; format: functional, cell-based; conditions: Homo sapiens, 48 h
Description: Antiproliferative activity against human CNE cells assessed as cell growth inhibition incubated for 48 hrs by MTT assay

A549 [27] = assay: Radiosensitizing activity against human A549 cells assessed as radiosensitization ratio by MTT assay; format: functional
HepG2 [28] = assay: cells; format: functional, cell-based; conditions: Homo sapiens, HepG2, 48 h
Description: Antiproliferative activity against human HepG2 cells assessed as cell growth inhibition incubated for 48 hrs by MTT assay

SK-OV-3 = assay: cells; format: functional, cell-based; conditions: Homo sapiens, SK-OV-3, 48 h
Description: Antiproliferative activity against human SK-OV-3 cells assessed as cell growth inhibition incubated for 48 hrs by MTT assay

[29] = Half life in human liver microsomes by LC-MS/MS analysis; format: ADME
[30] = Volume of distribution at steady state in Sprague-Dawley rat at 10 mg/kg, iv by LC-MS/MS analysis; format: ADME, organism-based; conditions: in vivo
[31] = Half life in Sprague-Dawley rat plasma at 10 mg/kg, iv by LC-MS/MS analysis; format: ADME, organism-based; conditions: in vivo

T1 sequence (P00533 whole entry): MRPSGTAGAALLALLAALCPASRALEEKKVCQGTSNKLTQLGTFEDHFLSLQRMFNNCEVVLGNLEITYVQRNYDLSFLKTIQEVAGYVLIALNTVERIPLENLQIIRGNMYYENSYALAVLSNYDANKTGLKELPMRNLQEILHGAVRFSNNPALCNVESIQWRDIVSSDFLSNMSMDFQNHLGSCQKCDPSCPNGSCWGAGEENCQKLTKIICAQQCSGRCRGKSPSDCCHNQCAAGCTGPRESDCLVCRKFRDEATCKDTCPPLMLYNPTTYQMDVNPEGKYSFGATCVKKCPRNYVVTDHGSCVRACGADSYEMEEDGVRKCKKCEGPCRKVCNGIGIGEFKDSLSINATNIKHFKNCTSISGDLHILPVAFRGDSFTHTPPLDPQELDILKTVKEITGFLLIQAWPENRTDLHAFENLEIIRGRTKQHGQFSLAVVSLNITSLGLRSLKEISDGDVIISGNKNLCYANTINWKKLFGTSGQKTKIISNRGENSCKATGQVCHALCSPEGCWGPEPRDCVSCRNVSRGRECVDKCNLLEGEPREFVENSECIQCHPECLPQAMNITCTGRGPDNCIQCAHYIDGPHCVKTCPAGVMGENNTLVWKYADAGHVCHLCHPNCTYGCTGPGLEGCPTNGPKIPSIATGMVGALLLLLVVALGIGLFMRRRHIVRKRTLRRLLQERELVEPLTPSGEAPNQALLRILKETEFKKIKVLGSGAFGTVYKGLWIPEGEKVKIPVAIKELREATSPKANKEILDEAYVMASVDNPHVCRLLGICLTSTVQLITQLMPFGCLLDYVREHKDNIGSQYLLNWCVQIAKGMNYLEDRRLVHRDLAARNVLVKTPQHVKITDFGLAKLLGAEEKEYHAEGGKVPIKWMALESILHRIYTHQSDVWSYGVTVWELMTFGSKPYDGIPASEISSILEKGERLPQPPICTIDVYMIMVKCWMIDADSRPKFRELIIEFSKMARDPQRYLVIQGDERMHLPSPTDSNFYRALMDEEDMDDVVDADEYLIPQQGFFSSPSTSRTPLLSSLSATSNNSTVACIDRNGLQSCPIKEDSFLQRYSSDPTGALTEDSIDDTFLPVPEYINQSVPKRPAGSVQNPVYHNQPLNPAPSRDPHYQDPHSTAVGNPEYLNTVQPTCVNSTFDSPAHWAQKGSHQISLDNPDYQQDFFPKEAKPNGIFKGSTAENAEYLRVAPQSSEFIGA
T3 sequence (P00533 25-1210 T790M/L858R limits assumed): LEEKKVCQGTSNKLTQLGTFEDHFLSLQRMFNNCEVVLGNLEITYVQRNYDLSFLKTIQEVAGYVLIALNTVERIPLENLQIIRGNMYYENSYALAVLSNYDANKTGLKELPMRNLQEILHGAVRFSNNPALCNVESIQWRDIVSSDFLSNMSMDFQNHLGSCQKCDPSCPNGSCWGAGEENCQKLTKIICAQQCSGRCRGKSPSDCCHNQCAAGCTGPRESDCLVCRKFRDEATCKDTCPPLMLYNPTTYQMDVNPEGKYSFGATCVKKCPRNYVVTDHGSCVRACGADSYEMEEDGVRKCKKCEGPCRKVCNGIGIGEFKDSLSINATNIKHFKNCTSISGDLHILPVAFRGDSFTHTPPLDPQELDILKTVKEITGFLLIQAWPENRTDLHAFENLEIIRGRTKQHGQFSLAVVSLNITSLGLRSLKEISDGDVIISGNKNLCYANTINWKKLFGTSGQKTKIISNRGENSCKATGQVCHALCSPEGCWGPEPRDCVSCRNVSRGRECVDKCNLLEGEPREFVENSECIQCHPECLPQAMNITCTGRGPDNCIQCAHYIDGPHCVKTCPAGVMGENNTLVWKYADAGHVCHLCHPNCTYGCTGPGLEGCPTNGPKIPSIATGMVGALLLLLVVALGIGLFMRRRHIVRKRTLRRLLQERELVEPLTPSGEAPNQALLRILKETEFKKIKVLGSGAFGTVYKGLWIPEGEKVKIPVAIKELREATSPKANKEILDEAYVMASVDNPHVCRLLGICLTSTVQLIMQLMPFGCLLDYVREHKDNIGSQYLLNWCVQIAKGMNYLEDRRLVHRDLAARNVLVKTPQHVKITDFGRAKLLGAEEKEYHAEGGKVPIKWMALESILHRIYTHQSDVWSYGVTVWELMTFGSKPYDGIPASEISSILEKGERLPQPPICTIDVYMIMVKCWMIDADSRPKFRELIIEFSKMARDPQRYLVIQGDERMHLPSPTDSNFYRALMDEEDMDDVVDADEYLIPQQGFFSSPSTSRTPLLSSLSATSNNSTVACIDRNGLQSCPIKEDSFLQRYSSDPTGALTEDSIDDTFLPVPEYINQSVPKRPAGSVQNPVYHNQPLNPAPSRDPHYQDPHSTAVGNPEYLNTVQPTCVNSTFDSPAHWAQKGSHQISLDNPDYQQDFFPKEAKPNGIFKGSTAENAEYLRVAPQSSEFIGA
T2 sequence (P04626 whole entry): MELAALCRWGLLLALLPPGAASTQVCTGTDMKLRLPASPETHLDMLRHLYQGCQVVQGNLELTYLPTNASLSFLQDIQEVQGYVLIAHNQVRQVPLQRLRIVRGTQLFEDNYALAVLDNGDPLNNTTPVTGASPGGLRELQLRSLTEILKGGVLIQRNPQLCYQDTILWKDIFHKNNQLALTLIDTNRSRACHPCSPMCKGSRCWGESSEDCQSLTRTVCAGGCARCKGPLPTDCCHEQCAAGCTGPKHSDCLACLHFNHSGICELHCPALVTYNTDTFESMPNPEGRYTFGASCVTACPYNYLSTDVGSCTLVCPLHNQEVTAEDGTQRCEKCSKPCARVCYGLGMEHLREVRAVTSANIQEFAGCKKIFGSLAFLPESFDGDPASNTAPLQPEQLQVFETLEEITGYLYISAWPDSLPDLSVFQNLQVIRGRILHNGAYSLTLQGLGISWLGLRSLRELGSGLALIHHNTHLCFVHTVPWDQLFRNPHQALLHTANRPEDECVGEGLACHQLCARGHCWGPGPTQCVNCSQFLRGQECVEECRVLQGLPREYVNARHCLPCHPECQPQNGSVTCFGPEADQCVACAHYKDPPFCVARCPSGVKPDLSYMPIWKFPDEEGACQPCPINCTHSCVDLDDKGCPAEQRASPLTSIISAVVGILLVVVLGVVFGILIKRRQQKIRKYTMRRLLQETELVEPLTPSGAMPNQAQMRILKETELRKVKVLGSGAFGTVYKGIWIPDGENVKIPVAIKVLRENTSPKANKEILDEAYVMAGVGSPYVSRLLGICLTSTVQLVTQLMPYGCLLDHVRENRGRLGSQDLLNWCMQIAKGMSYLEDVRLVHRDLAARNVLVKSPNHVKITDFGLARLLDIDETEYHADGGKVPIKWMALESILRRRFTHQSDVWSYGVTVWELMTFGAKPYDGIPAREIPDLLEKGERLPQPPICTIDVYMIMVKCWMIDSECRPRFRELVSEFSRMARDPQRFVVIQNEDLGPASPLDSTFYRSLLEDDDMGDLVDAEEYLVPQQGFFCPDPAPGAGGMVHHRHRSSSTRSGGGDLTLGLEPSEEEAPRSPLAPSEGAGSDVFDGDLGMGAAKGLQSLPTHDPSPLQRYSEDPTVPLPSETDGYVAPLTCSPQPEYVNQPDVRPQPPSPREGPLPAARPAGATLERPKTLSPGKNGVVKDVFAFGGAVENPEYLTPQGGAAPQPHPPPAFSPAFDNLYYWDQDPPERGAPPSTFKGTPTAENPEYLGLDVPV
Chain of Epidermal growth factor receptor (Homo sapiens, UniProt P00533, 746-750DEL) (P00533 whole entry, looked up, stated change not applied): as the sequence (P00533 whole entry) above

CS(=O)(=O)CCNCc1ccc(-c2ccc3ncnc(Nc4ccc(OCc5cccc(F)c5)c(Cl)c4)c3c2)o1 [LAPATINIB]
IC50 (A549 [1]): 11300 nM | IC50 (A549 [2]): 13300 nM | IC50 (HT-29 [3]): 6810 nM | IC50 (HT-29 [4]): 8850 nM | IC50 (A549 [5]): 14900 nM

Cc1ccc(NC(=O)CSc2nc3cc4ccccc4cc3c(=O)n2-c2ccc(S(N)(=O)=O)cc2)cc1
IC50 [6]: 9 nM | IC50 (A549 [7]): 105 nM | IC50 [8]: 21 nM

CNC(=O)c1cc(Oc2ccc(NC(=O)Nc3ccc(Cl)c(C(F)(F)F)c3)cc2)ccn1 [SORAFENIB]
IC50 (MCF7): 2500 nM | IC50 (HT-29 [9]; Homo sapiens, HT-29, 72 h): 2500 nM | IC50 (HT-29 [9]; ht-29): 3270 nM | IC50 (MRC5): 24100 nM | IC50 (NCI-H460): 2150 nM | IC50 (A549 [10]): 4470 nM | IC50 (MDA-MB-231 [11]): 3810 nM

CN(C)CCn1cccc1/C=N/NC(=O)Nc1cc2c(Nc3ccc(F)c(Cl)c3)ncnc2cc1O[C@H]1CCOC1
IC50 (MCF7): 4820 nM | IC50 (A549 [10]): 1840 nM | IC50 [12]: 0.05 nM | IC50 [13]: 5.6 nM | IC50 (HepG2 [14]): 40 nM | IC50 (PC-3): 3840 nM

O=C(N/N=C/c1cnc(N2CCCC2)nc1)Nc1cc2c(Nc3ccc(F)c(Cl)c3)ncnc2cc1O[C@H]1CCOC1
IC50 (MCF7): 2370 nM | IC50 (A549 [10]): 5900 nM | IC50 (HepG2 [14]): 4630 nM | IC50 [15]: 6.3 nM | IC50 [16]: 8.4 nM

C#Cc1cccc(Nc2ncnc3cc(OC)c(OCCCN4CCOCC4)cc23)c1
IC50 [17]: 1.23 nM | IC50 (PC-9): 100 nM | IC50 (A-431): < 100 nM | AUC(0-t) [18]: 6110 ng·h/mL | AUC(0-inf) [19]: 6150 ng·h/mL | MRT last [20]: 3.96 h

CN(C)C/C=C/C(=O)Nc1cc2c(Nc3ccc(F)c(Cl)c3)ncnc2cc1O[C@H]1CCOC1 [AFATINIB]
Activity (A549 [21]): 13.53%

CN(C)C/C=C/C(=O)Nc1cc2c(N3CCc4ccccc43)ncnc2cc1O[C@@H]1CCOC1
Activity (A549 [21]): 14.59%

NS(=O)(=O)c1ccc(CCn2c(SCC(=O)Nc3ccc(Cl)cc3)nc3ccccc3c2=O)cc1
IC50 (MCF7): 1040 nM | IC50 [22]: 200 nM | IC50 [23]: 170 nM | IC50 [24]: 390 nM | IC50 (HT-29 [9]; Homo sapiens, HT-29, 72 h): 1430 nM | IC50 (HL-60): 410 nM and 2030 nM | IC50 (K562): 2030 nM | IC50 (MRC5): 3770 nM

Cc1ccc(Nc2ncnc3ccc(NC(=O)c4cc(OCc5ccccc5)c5c(c4)C(=O)c4cccc(OCc6ccccc6)c4C5=O)cc23)cc1
IC50 (MDA-MB-231 [25]): 3200 nM | IC50 (A549 [26]): 23300 nM | IC50 (CNE): 2100 nM | Ratio (A549 [27]): 1.88 | IC50 (HepG2 [28]): 34900 nM | IC50 (SK-OV-3): 12500 nM

COc1cc2ncnc(Nc3ccc(F)c(Cl)c3)c2cc1OCCCN1CCOCC1 [GEFITINIB]
t1/2 [29]: 0.3752 h | Vdss [30]: 5.93 L/kg | AUC(0-t) [18]: 7720 ng·h/mL | AUC(0-inf) [19]: 7800 ng·h/mL | MRT last [20]: 4.54 h | t1/2 [31]: 3.85 h

O=C(O)c1cc(O)c2c(c1)C(=O)c1cccc(O)c1C2=O [RHEIN]
IC50 (A549 [26]): 138000 nM | IC50 (HepG2 [28]): 74600 nM

— ChEMBL document CHEMBL5230100, “Novel quinazoline-based EGFR kinase inhibitors: A review focussing on SAR and molecular docking studies (2015-2019)” (Eur J Med Chem, 2020)
